We go through 1 compound from US8101598B2 (priority 2006, dated 2012).

Structures can show the parent of a compound that is named as a salt. Bounds are passed on as bounds.

The assay addresses α7-subtype of nicotinic receptors (Rattus norvegicus, UniProt Q05941). Put plainly: biochemical. In kind it is binding.

Chain of α7-subtype of nicotinic receptors (Q05941 23-502): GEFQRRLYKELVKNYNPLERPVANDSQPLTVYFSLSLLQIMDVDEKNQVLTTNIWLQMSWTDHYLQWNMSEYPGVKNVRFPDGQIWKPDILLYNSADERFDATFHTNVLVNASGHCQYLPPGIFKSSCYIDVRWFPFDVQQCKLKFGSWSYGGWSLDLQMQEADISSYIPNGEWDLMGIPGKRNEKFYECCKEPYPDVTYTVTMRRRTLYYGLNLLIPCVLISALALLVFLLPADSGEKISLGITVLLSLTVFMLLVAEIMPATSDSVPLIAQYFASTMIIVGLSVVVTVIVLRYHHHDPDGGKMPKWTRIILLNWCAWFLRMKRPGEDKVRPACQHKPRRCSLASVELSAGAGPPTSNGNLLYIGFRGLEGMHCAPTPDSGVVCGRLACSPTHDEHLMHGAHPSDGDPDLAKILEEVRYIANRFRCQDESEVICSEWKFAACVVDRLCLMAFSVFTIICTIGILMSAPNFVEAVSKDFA

By IC50 is commonly meant the concentration that inhibits the measured activity by half. As for `c1cc2c(cc1-c1nnc(N3CCN4CCC3CC4)o1)OCO2` [Compound A1, 4-(5-Benzo[1,3]-dioxol-5-yl-[1,3,4]oxadiazol-2-yl)-1,4-diaza-bicyclo[3.2.2]nonane Fumaric Acid Salt], the IC50 was < 0.01 µM.
